Columns and labels:
HeLa = test: Antiproliferative activity against human HeLa cells after 48 hrs by MTT assay; type: functional, cell-based
[1] = molecular target: 72 kDa type IV collagenase (Homo sapiens, UniProt P08253); test: Inhibition of recombinant human MMP-2 preincubated for 10 mins followed by Mca-PLGL-Dpa-AR-NH2 substrate addition and measured for 5 mins by fluorescence assay
Neutrophil collagenase = Neutrophil collagenase (Homo sapiens, UniProt P22894); test: Inhibition of recombinant human MMP-8 using Mca-PLGL-Dpa-AR-NH2 as substrate preincubated for 10 mins followed by substrate addition and measured for 5 mins by fluorescence assay
Chain of Neutrophil collagenase (P22894 whole entry): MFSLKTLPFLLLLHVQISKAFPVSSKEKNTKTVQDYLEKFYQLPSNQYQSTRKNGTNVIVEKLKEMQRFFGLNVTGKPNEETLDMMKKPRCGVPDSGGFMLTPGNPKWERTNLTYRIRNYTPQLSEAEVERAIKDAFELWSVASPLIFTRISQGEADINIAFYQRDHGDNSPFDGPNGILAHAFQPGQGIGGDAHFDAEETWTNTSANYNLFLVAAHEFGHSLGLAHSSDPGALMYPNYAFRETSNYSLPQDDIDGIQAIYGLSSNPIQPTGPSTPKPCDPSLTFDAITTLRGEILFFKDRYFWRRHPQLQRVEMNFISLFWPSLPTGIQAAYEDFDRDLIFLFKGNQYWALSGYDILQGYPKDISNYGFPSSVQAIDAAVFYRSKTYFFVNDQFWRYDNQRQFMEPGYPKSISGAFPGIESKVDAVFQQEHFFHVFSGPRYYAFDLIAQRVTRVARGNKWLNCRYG

MCF7 [2] = test: Antiproliferative activity against human MCF7 cells after 48 hrs by MTT assay; type: functional, cell-based; details: MCF7, 48 h
HEK-293T = test: Cytotoxicity against human 293T cells by MTT assay; type: cell-based
HepG2 = test: Antiproliferative activity against human HepG2 cells after 48 hrs by MTT assay; type: functional, cell-based; details: HepG2, 48 h
L02 = test: Cytotoxicity against human LO2 cells by MTT assay; type: cell-based
MCF7 [3] = test: Induction of apoptosis in human MCF7 cells assessed as early apoptotic cells at 2 uM after 48 hrs by Annexin V-FITC/propidium iodide staining-based flow cytometric analysis (reference value: 2.54%); type: functional
MCF7 [4] = test: Induction of apoptosis in human MCF7 cells assessed as late apoptotic cells at 2 uM after 48 hrs by Annexin V-FITC/propidium iodide staining-based flow cytometric analysis (reference value: 5.33%); type: functional
MCF7 [5] = test: Induction of apoptosis in human MCF7 cells assessed as late apoptotic cells at 32 uM after 48 hrs by Annexin V-FITC/propidium iodide staining-based flow cytometric analysis (reference value: 5.33%); type: functional
MCF7 [6] = test: Induction of apoptosis in human MCF7 cells assessed as live cells at 8 uM after 48 hrs by Annexin V-FITC/propidium iodide staining-based flow cytometric analysis (reference value: 91.8%); type: functional
MCF7 [7] = test: Induction of apoptosis in human MCF7 cells assessed as live cells at 2 uM after 48 hrs by Annexin V-FITC/propidium iodide staining-based flow cytometric analysis (reference value: 91.8%); type: functional
MCF7 [8] = test: Induction of apoptosis in human MCF7 cells assessed as necrotic cells at 32 uM after 48 hrs by Annexin V-FITC/propidium iodide staining-based flow cytometric analysis (reference value: 0.343%); type: functional
MCF7 [9] = test: Induction of apoptosis in human MCF7 cells assessed as early apoptotic cells at 32 uM after 48 hrs by Annexin V-FITC/propidium iodide staining-based flow cytometric analysis (reference value: 2.54%); type: functional
MCF7 [10] = test: Induction of apoptosis in human MCF7 cells assessed as necrotic cells at 2 uM after 48 hrs by Annexin V-FITC/propidium iodide staining-based flow cytometric analysis (reference value: 0.343%); type: functional
MCF7 [11] = test: Induction of apoptosis in human MCF7 cells assessed as late apoptotic cells at 8 uM after 48 hrs by Annexin V-FITC/propidium iodide staining-based flow cytometric analysis (reference value: 5.33%); type: functional
MCF7 [12] = test: Induction of apoptosis in human MCF7 cells assessed as early apoptotic cells at 8 uM after 48 hrs by Annexin V-FITC/propidium iodide staining-based flow cytometric analysis (reference value: 2.54%); type: functional
MCF7 [13] = test: Induction of apoptosis in human MCF7 cells assessed as necrotic cells at 8 uM after 48 hrs by Annexin V-FITC/propidium iodide staining-based flow cytometric analysis (reference value: 0.343%); type: functional
MCF7 [14] = test: Induction of apoptosis in human MCF7 cells after 48 hrs by Annexin V-FITC/propidium iodide staining-based flow cytometric analysis; type: functional, cell-based
MCF7 [15] = test: Induction of apoptosis in human MCF7 cells assessed as live cells at 32 uM after 48 hrs by Annexin V-FITC/propidium iodide staining-based flow cytometric analysis (reference value: 91.8%); type: functional

Chain of 72 kDa type IV collagenase (P08253 whole entry): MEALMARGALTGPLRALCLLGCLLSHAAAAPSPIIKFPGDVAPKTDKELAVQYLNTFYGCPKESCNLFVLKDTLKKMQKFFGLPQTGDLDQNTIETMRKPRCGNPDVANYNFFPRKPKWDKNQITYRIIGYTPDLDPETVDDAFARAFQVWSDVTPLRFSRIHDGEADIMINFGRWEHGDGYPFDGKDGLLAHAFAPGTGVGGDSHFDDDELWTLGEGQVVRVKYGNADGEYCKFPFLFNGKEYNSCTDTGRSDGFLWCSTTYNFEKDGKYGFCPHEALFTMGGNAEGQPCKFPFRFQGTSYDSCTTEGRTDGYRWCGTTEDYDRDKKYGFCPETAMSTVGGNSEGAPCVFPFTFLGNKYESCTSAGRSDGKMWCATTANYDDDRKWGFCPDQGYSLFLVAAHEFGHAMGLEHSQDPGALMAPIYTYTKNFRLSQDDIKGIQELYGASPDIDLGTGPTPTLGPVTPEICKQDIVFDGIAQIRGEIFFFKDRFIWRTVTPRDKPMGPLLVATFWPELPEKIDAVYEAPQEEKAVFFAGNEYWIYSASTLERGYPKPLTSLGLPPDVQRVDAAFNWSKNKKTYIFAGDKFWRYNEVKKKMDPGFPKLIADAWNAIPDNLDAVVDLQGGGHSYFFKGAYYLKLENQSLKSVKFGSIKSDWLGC

| Compound | IC50 (HeLa) [µM] | IC50 ([1]; read-out: IC50) [µM] | IC50 (Neutrophil collagenase) [µM] | IC50 (MCF7 [2]) [µM] | CC50 (HEK-293T) [µM] | IC50 (HepG2) [µM] | CC50 (L02) [µM] | also measured |
| --- | --- | --- | --- | --- | --- | --- | --- | --- |
| COc1ccc(C2=NN(c3nc(-c4cccc(Br)c4)cs3)C(c3ccccc3O)C2)cc1 (configuration not stated) | 13 | 14 | 48.1 | 4.42 | 24.5 | 7.55 | 68.7 |  |
| COc1ccc(C2=NN(c3nc(-c4ccc(Br)cc4)cs3)C(c3ccccc3O)C2)cc1 (configuration not stated) | 28.1 | 16.9 | 36.8 | 20.1 | 71.9 | 9.52 | > 100 |  |
| Oc1ccccc1C1CC(c2ccc(F)cc2)=NN1c1nc(-c2cccc(Br)c2)cs1 (configuration not stated) | 10.8 | 16.2 | 60.1 | 8.01 | 70.1 | 18.4 | 59.4 |  |
| COc1cccc(-c2csc(N3N=C(c4ccccc4)CC3c3ccccc3O)n2)c1 (configuration not stated) | 2.73 | 8.31 | 35.8 | 5.3 | 46.6 | 10.9 | 57.9 |  |
| COc1ccc(-c2csc(N3N=C(c4ccccc4)CC3c3ccccc3O)n2)cc1 (configuration not stated) | 8.64 | 11.2 | 48.9 | 1.03 | 57.1 | 11.9 | 72.4 | Activity (MCF7 [3]): 4.44%; Activity (MCF7 [4]): 22.4%; Activity (MCF7 [5]): 60.9%; Activity (MCF7 [6]): 53.7%; Activity (MCF7 [7]): 73%; Activity (MCF7 [8]): 0.198%; Activity (MCF7 [9]): 2.29%; Activity (MCF7 [10]): 0.216%; Activity (MCF7 [11]): 43.6%; Activity (MCF7 [12]): 2.57%; Activity (MCF7 [13]): 0.207%; Activity (MCF7 [14]): Dose-dependent effect; Activity (MCF7 [15]): 36.6% |
| COc1ccc(C2=NN(c3nc(-c4ccc(OC)cc4)cs3)C(c3ccccc3O)C2)cc1 (configuration not stated) | 16.3 | 11.7 | 65.2 | 3.17 | 63 | 15.3 | 49.7 |  |
| Oc1ccccc1C1CC(c2ccc(F)cc2)=NN1c1nc(-c2ccc(Br)cc2)cs1 (configuration not stated) | 2.7 | 12.3 | 48.8 | 1.47 | 52 | 15 | 48.2 |  |
| COc1ccc(C2=NN(c3nc(-c4cccc(OC)c4)cs3)C(c3ccccc3O)C2)cc1 (configuration not stated) | 13.7 | 2.8 | 25.6 | 3.72 | 35.2 | 12.6 | 56.2 |  |
| Oc1ccccc1C1CC(c2ccccc2)=NN1c1nc(-c2ccccc2)cs1 (configuration not stated) | 5.05 | 21.6 | 62.5 | 2.08 | 55.1 | 9.9 | 88.3 | IC50 ([1]; read-out: pIC50 (converted)): 21.4 µM |
| COc1ccc(C2=NN(c3nc(-c4ccccc4)cs3)C(c3ccccc3O)C2)cc1 (configuration not stated) | 18.2 | 12.9 | 30.5 | 2.39 | 64.1 | 23.3 | 75.2 |  |
| Oc1ccccc1C1CC(c2ccccc2)=NN1c1nc(-c2ccc(Br)cc2)cs1 (configuration not stated) | 4.88 | 34.8 | 75.6 | 2.14 | 52.8 | 17.6 | 65.2 |  |
| Oc1ccccc1C1CC(c2ccc(F)cc2)=NN1c1nc(-c2ccc(C(F)(F)F)cc2)cs1 (configuration not stated) | 11.7 | 58.4 | 100 | 2.89 | 34.8 | 10.5 | 66.1 |  |
| COc1ccc(C2=NN(c3nc(-c4ccc(C(F)(F)F)cc4)cs3)C(c3ccccc3O)C2)cc1 (configuration not stated) | 29.3 | 58.8 | > 100 | 11.1 | 45.4 | 12 | 45.6 | IC50 ([1]; read-out: pIC50 (converted)): 57.5 µM |
| COc1cccc(-c2csc(N3N=C(c4ccc(F)cc4)CC3c3ccccc3O)n2)c1 (configuration not stated) | 9.73 | 6.7 | 36.4 | 4.01 | 39.1 | 17.8 | 43.8 |  |
| Oc1ccccc1C1CC(c2ccccc2)=NN1c1nc(-c2cccc(Br)c2)cs1 (configuration not stated) | 5.51 | 28.3 | 86.5 | 1.07 | 41.8 | 21.7 | 42.3 |  |
| Oc1ccccc1C1CC(c2ccccc2)=NN1c1nc(-c2ccc(C(F)(F)F)cc2)cs1 (configuration not stated) | 2.25 | 48.2 | > 100 | 3.5 | 25.4 | 8.85 | 42.8 |  |
| Oc1ccccc1C1CC(c2ccc(F)cc2)=NN1c1nc(-c2ccccc2)cs1 (configuration not stated) | 13.1 | 9.65 | 39.7 | 3.24 | 50.7 | 25 | 85.6 |  |
| COc1ccc(-c2csc(N3N=C(c4ccc(F)cc4)CC3c3ccccc3O)n2)cc1 (configuration not stated) | 17 | 10.8 | 28.2 | 4.56 | 59.4 | 18.2 | 85.6 |  |
| C[C@@]1(O)c2cccc(O)c2C(=O)C2=C(O)[C@]3(O)C(=O)C(C(N)=O)=C(O)C[C@@H]3C[C@@H]21 |  | 1.29 | 21.9 |  |  |  |  |  |
| Cc1ccc(-c2cc(C(F)(F)F)nn2-c2ccc(S(N)(=O)=O)cc2)cc1 [CELECOXIB] |  |  |  | 6.96 | 55.8 | 0.78 | 78.2 |  |
